Source: patent US6376488B1, “Benzoxazine α-1 adrenergic compounds” (Abbott Laboratories, priority 2000, dated 2002)
Counter-ions that a name gives are not always drawn.

Experiments:
α1d (rat) adrenoreceptor = target: T1, α1d (rat) adrenoreceptor (Rattus norvegicus, UniProt P23944); assay: [3H]-prazosin radioligand binding, cloned α1d (rat) adrenoreceptor in LTK cells; details: cloned receptor in LTK cell membranes, [3H]prazosin 0.2 nM
T1 sequence (P23944 1-561): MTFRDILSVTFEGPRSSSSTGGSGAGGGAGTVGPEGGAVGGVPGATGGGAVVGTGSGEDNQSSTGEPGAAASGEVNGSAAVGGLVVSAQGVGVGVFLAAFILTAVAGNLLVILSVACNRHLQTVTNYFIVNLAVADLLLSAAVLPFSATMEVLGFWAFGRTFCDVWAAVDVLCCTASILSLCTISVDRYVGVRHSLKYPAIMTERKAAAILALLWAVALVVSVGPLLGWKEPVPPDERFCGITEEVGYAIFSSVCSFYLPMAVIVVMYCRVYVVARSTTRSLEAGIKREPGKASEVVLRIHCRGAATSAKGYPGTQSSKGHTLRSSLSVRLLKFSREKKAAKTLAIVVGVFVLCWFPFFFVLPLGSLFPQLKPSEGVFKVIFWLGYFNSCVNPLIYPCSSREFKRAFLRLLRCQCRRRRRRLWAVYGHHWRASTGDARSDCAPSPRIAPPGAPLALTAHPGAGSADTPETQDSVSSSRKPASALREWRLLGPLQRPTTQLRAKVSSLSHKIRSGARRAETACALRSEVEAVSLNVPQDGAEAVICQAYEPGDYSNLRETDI
Experimental: Representative compounds of the invention were evaluated for α adrenoreceptor binding affinity in vitro using [^3H]-prazosin as the radioligand and following four cloned α1, adrenoreceptors expressed in LTK cells: α1a (rat), α1a (bovine), α1b : (hampster), and α1d (rat).
The cDNA clones encoding the α1, adrenoreceptors were obtained from TULCO (Triangle Universities Licensing Consortium, Research Triangle Park, N.C.) and inserted into the eukaryotic expression vector SnaB30. In this vector, expression of the adrenoreceptor gene is under the transcriptional control of an SV40 early promoter. Positive drug selection is provided by a neomycin-resistance gene. Mouse fibroblast cells (LTK) were transfected with the α1 expression plasmids and grown in Dulbecco's modified Eagle's medium (DMEM) containing 10% fetal calf serum and 30 μM G418. Stable G418-resistant parental lines were generated with successful expression of adrenoreceptor protein monitored using radioligand binding techniques. Stable single cell clones derived from the parental lines were screened in adrenoreceptor binding assays to identify clones having high adrenoreceptor density. Roller bottle cultures of the cloned lines were used to provide cell membranes for subsequent adrenoreceptor binding characterization studies. A cell line containing the SnaB30 vector expressing the human erythropoietin gene served as a negative control.
For adrenoreceptor binding assays, large scale membrane preparations were utilized in which 6 million cells were seeded into small (450 cm^2) Coming tissue culture roller bottles. DMEM (200 mL) containing 10% fetal calf serum and 300 μM G418 were added to each roller bottle. A 95% air/5% CO2 gas mixture (sterile) was injected into each roller bottle prior to sealing, and the bottles were then incubated at 37° C. on a roller rack for 5 days. Cells were refed with fresh medium after 3 days in culture.
On the fifth day of culture, growth medium was removed from cells grown in roller bottles, and the cells were washed twice with PBS (Sigma, 120 mM NaCl, 2.7 mM KCl, 10 mM Na2HPO4-NaH2PO4, pH=7.4). Cells were detached from the roller bottles by incubating for 15 minutes at 37° C. in a Tris-EDTA solution (10 mM Tris, 100 mM NaCl, 1 mM EDTA, pH=7.4). The cell suspension from each roller bottle was decanted into tared centrifuge tubes and kept on ice. An aliquot of each cell suspension was generally taken for cell counting. Cells were centrifuged at 3000×G for 5 minutes at 2-4° C., washed with PBS and recentrifuged. The supernatant was decanted, and the pellet was weighed to determine the wet weight of cells. Cells were washed a final time in 40 vol 5 mM Tris-HCl, 5 mM EDTA, pH=7.7 and centrifuged at 40,000×G for 10 minutes (“vol” indicates volume/weight, e.g., a “vol” of 40 would indicate that the one gram of cells were washed with 40 mls of buffer). Cells were homogenized in of 50 mM Tris-HCl, 5 mM EDTA (pH=7.4) (10 mL) and diluted to 40 mL/tube. Homogenates were centrifuged at 40,000×G for 10 minutes. The supernatant was decanted and the pellets rehomogenized in 50 mM Tris-HCl (pH=7.4) and centrifuged as before. The supernatant was decanted and the homogenate was resuspended in 6.25 volumes (per gram wet weight) of 50 mM Tris-HCl and aliquots of the pooled homogenates frozen in liquid N2 and,stored at −70° C. until the time of assay.
Receptor binding assays for α1 adrenoreceptors were performed essentially as described by Greengrass and Bremner (Eur. J. Pharmacol. 55: 323-326 (1979)). […] Following equilibration, bound radioligand was separated from free on GF/B filters (presoaked in 0.5% polyethyleneimine) using ither a Brandel or Packard cell harvester. Radioactivity was determined by standard liquid scintillation techniques. Data were analyzed as previously described (Hancock, A. A., Kyncl, J. J., Martin, Y. C. and DeBemardis, J. F., J. Receptor Res. 8: 23-46 (1988)). The in Table 1.

| Molecule | Ki (α1d (rat) adrenoreceptor) [nM] | melting point [°C] |
| --- | --- | --- |
| COc1cccc2c1N1CCN(CCn3c(=O)[nH]c4c(sc5cccnc54)c3=O)CC1CO2.Cl.Cl.Cl (single isomer, unassigned; (+)) [Example 16, (+) 3-[2-(10-methoxy-1,2,4a,5-tetrahydropyrazino[2,1-c][1,4]benzoxazin-3(4H)-yl)ethyl]pyrido[2′,3′:4,5]thieno[3,2-d]pyrimidine-2,4(1H,3H)-dione trihydrochloride] | 2.01 | 301 to 302 |
| COc1cccc2c1N1CCN(CCCCn3c(=O)[nH]c4c(sc5cccnc54)c3=O)CC1CO2 (single isomer, unassigned; (+)) [Example 14, (+) 3-[4-(10-methoxy-1,2,4a,5-tetrahydropyrazino[2,1-c][1,4]benzoxazin-3(4H)-yl)butyl]pyido [2′,3′:4,5]thieno[3,2-d]pyrimidine-2,4(1H,3H)-dione trihydrochloride] | 2.16 |  |
| COc1cccc2c1N1CCN(CCn3c(=O)[nH]c4c(sc5cccnc54)c3=O)CC1CO2.Cl.Cl (single isomer, unassigned; (-)) [Example 7, (−) 3-[2-(10methoxy-1,2,4a,5-tetrahydropyrazino[2,1-c][1,4]benzoxazin-3(4H)-yl)ethyl]pyrido[2′,3′:4,5]thieno[3,2-d]pyrimidine-2,4(1H,3H)-dione dihydrochloride] | 1.13 | 297 to 298 |
| COc1cccc2c1N1CCN(CCCCn3c(=O)[nH]c4c(sc5ncccc54)c3=O)CC1CO2 (single isomer, unassigned; (-)) [Example 11, (−) 3-[4-(10-methoxy-1,2,4a,5-tetrahydropyrazino[2,1-c][1,4]benzoxazin-3(4H)-yl)butyl]pyrido[3′,2′:4.5]thieno[3,2-d]pyrimidine-2,4(1H,3H)-dione trihydrochloride] | 0.427 |  |
| (−) 3-[3-(10-methoxy-1,2,4a,5-tetrahydropyrazino[2,1-c][1,4]benzoxazin-3(4H)-yl)butyl]pyrido[2′,3′:4,5]thieno[3,2-d]pyrimidine-2,4(1H,3H)-dione trihydrochloride [Example 10] | 0.344 |  |
| COc1cccc2c1N1CCN(CCn3c(=O)[nH]c4c(sc5ncc(Cl)nc54)c3=O)CC1CO2.Cl.Cl (single isomer, unassigned; (+)) [Example 8, (+) 3-[2-(10-methoxy-1,2,4a,5-tetrahydropyrazino[2,1-c][1,4]benzoxazin-3(4H)-yl)ethyl]-8-chloropyrazino[2′,3′:4,5]thieno[3,2-d]pyrimidine-2,4(1H,3H)-dione dihydrochloride] | 5.08 | 280 to 283 |
| Cl.Cl.O=c1[nH]c2c(sc3ncccc32)c(=O)n1CCCCN1CCN2c3ccccc3OCC2C1 (single isomer, unassigned; (+)) [Example 5, (+) 3-[4-(1,2,4a,5-tetrahydropyrazino[2,1-c][1,4]benzoxazin-3(4H)-yl)butyl]pyrido[3′, 2′:4,5]thieno[3,2-d]pyrimidine-2,4(1H,3H)-dione dihydrochloride] | 4.26 | 288 to 291 |
| O=c1[nH]c2c(sc3cccnc32)c(=O)n1CCCCN1CCN2c3ccccc3OCC2C1 (single isomer, unassigned; (-)) [Example 4, (−) 3-[4-(1.2,4a,5-tetrahydropyrazino[2,1-c][1,4benzoxazin-3(4H)-yl)butyl]pyrido[2′,3′:4,5]thieno[3,2-d]pyrimidine-2,4(1H,3H)-dione dihydrochloride] | 19.5 |  |

Continued, values first:

| Ki (α1d (rat) adrenoreceptor) [nM] | melting point [°C] | Molecule |
| --- | --- | --- |
| 1.28 | 215 to 220 | COc1cccc2c1N1CCN(CCCn3c(=O)[nH]c4c(sc5cccnc54)c3=O)CC1CO2.Cl.Cl.Cl (single isomer, unassigned; (-)) [Example 9, (−) 3-[3-(10-methoxy-1,2,4a,5-tetrahydropyrazino[2,1-c][1,4]benzoxazin-3(4H)-yl)propyl]pyrido[2′,3′:4,5]thieno[3,2-d]pyrimidine-2,4(1H, 3H)-dione trihydrochloride] |
| 1.15 | 198 to 201 | COc1cccc2c1N1CCN(CCCCn3c(=O)[nH]c4c(sc5ncc(Cl)nc54)c3=O)CC1CO2.Cl.Cl (single isomer, unassigned; (-)) [Example 12, (−) 3-[4-(10-methoxy-1,2,4a,5-tetrahydropyrazino[2,1-c][1,4]benzoxazin-3(4H)-yl)butyl]-8-chloropyrazino[2′,3′:4,5]thieno[3,2-d]pyrimidine-2,4(1H,3H)-dione dihydrochloride] |
| 1.3 | 225 to 230 | COc1cccc2c1N1CCN(CCCCn3c(=O)[nH]c4c(sc5ncccc54)c3=O)CC1CO2.Cl.Cl.Cl (single isomer, unassigned; (+)) [Example 15, (+) 3-[4-(10-methoxy-1,2,4a,5-tetrahydropyrazino[2,1-c][1,4]benzoxazin-3(4H)-yl)butyl]pyrido[3′,2′:4,5]thieno[3,2-d]pyrimidine-2,4(1H,3H)-dione trihydrochloride] |
| 3.52 | 280 to 282 | COc1cccc2c1N1CCN(CCn3c(=O)[nH]c4c(sc5ncc(Cl)nc54)c3=O)CC1CO2.Cl.Cl (single isomer, unassigned; (-)) [Example 13, (−) 3-[2-(10-methoxy-1,2,4a,5-tetrahydropyrazino[2,1-c][1,4]benzoxazin-3(4H)-yl)ethyl]-8-chloropyrazino[2′,3′:4,5]thieno[3,2-d]pyrimidine-2,4(1H,3H)-dione dihydrochloride] |
| 16.9 | 290 to 293 | Cl.Cl.O=c1[nH]c2c(sc3ncccc32)c(=O)n1CCCCN1CCN2c3ccccc3OCC2C1 (single isomer, unassigned; (-)) [Example 6, (−) 3-[4-(1,2,4a,5-tetrahydropyrazino[2,1-c][1,4]benzoxazin-3(4H)-yl)butyl]pyrido[3′, 2′:4,5]thieno[3,2-d]pyrimidine-2,4(1H,3H)-dione dihydrochloride] |
| 5 | 278 to 280 | Cl.Cl.O=c1[nH]c2c(sc3cccnc32)c(=O)n1CCCCN1CCN2c3ccccc3OCC2C1 (single isomer, unassigned; (+)) [Example 3, (+) 3-[4-(1,2,4a,5-tetrahydropyrazino[2,1-c][1,4]benzoxazin-3(4H)-yl)butyl]pyrido[2′, 3′:4,5]thieno[3,2-d]pyrimidine-2,4(1H,3H)-dione dihydrochloride] |
| 69.8 |  | O=c1[nH]c2c(sc3cccnc32)c(=O)n1CCCN1CCN2c3ccccc3OCC2C1 (single isomer, unassigned; (-)) [Example 2, (−) 3-[3-(1,2,4a,5-tetrahydropyrazino[2,1-c][1,4]benzoxazin-3(4H)-yl)propyl]pyrido[2′,3′:4,5]thieno[3,2-d]pyrimidine-2,4(1H,3H)-dione dihydrochloride] |
